Laboratory results as given in PubChem BioAssay (NCI).
“And” between values parts separate entries of the source, which are not always exact repeats. Identical values can stand only once.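 All cell lines were grown in 96-well plates and treated with compound for 48 hours. GI50: concentration for 50% inhibition of growth. TGI: concentration producing complete growth inhibition.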

Experiments:
Assay in all cases: NCI-60 cell line screen, 48 h
HT29 colon = test system: HT29 colon
OVCAR-3 ovarian = test system: OVCAR-3 ovarian
OVCAR-8 ovarian = test system: OVCAR-8 ovarian
HOP-92 NSCLC = test system: HOP-92 NSCLC
SK-MEL-2 melanoma = test system: SK-MEL-2 melanoma
SF-268 CNS = test system: SF-268 CNS
UO-31 renal = test system: UO-31 renal
LOX IMVI melanoma = test system: LOX IMVI melanoma
OVCAR-4 ovarian = test system: OVCAR-4 ovarian
SNB-75 CNS = test system: SNB-75 CNS

Row | Structure (SMILES) | GI50 (HT29 colon) | TGI (HT29 colon) | GI50 (OVCAR-3 ovarian) | TGI (OVCAR-3 ovarian) | GI50 (OVCAR-8 ovarian) | TGI (OVCAR-8 ovarian) | GI50 (HOP-92 NSCLC) | TGI (HOP-92 NSCLC) | GI50 (SK-MEL-2 melanoma) | TGI (SK-MEL-2 melanoma) | GI50 (SF-268 CNS) | TGI (SF-268 CNS) | GI50 (UO-31 renal) | TGI (UO-31 renal) | GI50 (LOX IMVI melanoma) | TGI (LOX IMVI melanoma) | GI50 (OVCAR-4 ovarian) | TGI (OVCAR-4 ovarian) | GI50 (SNB-75 CNS) | TGI (SNB-75 CNS)
1 | CC(C)Oc1cc(OCC(=O)O)cc(C(=O)N(CCC(N)=O)C(=O)Nc2ccc(C(=O)O)cc2OC(C)C)c1 | > 100 µM | > 100 µM | > 100 µM | > 100 µM | > 100 µM | > 100 µM | > 100 µM | > 100 µM | > 100 µM | > 100 µM | > 100 µM | > 100 µM | > 100 µM | > 100 µM | > 100 µM | > 100 µM | > 100 µM | > 100 µM | > 100 µM | > 100 µM
2 | CC/C=C/[C@@H]1C=C[C@@H]2CCC[C@H]2[C@@H]1CC[C@H](O)[C@H](C)N | 1.46 µM | 2.77 µM | 1.59 µM | 2.93 µM | 2.3 µM | 5.54 µM | 1.41 µM | 3.89 µM | 2.11 µM | 4.73 µM | 1.71 µM | 3.42 µM | 1.77 µM | 4.91 µM | 1.58 µM | 2.92 µM | 1.83 µM | 4.88 µM | 0.538 µM | 5.23 µM
3 | CC(=O)OC1COC(N2C(=O)C(=O)c3c(C)cc(Cl)nc32)C(OC(C)=O)C1OC(C)=O (stereo not drawn) | – | > 100 µM | – | > 100 µM | – | > 100 µM | – | > 100 µM | – | > 100 µM | – | > 100 µM | – | > 100 µM | – | > 100 µM | – | > 100 µM | – | > 100 µM
4 | C=C1C(=O)OC(CCCCCCCC)C1C(=O)O (stereo not drawn) | 22.1 µM | 47.2 µM | 7.66 µM | 19.5 µM | 19.4 µM | 45.9 µM | 12.1 µM | 25.4 µM | 16.1 µM | 31.7 µM | 19.5 µM | 39.6 µM | 11.7 µM | 25.6 µM | 13.5 µM | 26.9 µM | 15.3 µM | 31.8 µM | 16 µM | 34.6 µM
5 | O=C(Cn1ccnc1[N+](=O)[O-])NCCO | – | > 100 µM | – | > 100 µM | – | > 100 µM | – | > 100 µM | – | > 100 µM | – | > 100 µM | – | > 100 µM | – | > 100 µM | – | > 100 µM | – | > 100 µM
6 | Cc1ccc(CCC(=O)Nc2ncc(Cc3cc(Cl)ccc3Cl)s2)o1 | 0.054 µM | – | 0.172 µM | 1.36 µM | 0.432 µM | > 26.1 µM | 2.33 µM | > 45.3 µM | 0.683 µM | > 58.5 µM | 1.59 µM | > 54.6 µM | 0.594 µM | 6.43 µM | 0.221 µM | – | 0.767 µM | > 20.4 µM | 0.206 µM | 2.16 µM
7 | COc1ccc(CN2CCc3c(Cl)nc(N)nc3C2=O)c(OC)c1 | 15.2 µM | 29.1 µM | 15.4 µM | 29.8 µM | 26.9 µM | > 100 µM | 14.5 µM | 36 µM | 16.6 µM | 34.8 µM | 13.6 µM | 27.3 µM | 14 µM | 43.8 µM | 13.2 µM | 26.7 µM | 12.6 µM | 25.6 µM | 14.4 µM | 32.7 µM
8 | O=C(Nc1ccc(Cl)cc1)NS(=O)(=O)c1ccc2c(c1)CCC2 | 19.7 µg/mL | > 100 µM and 43.4 µg/mL | 5.61 µg/mL | 73.8 µM and 21.4 µg/mL | 18.8 µg/mL | > 100 µM and 44.2 µg/mL | 8.6 µg/mL | 31.5 µg/mL | 21.6 µg/mL | > 100 µM and 48.6 µg/mL | 15.7 µg/mL | > 100 µM and 35.7 µg/mL | 21.5 µg/mL | > 76.3 µM and 42 µg/mL | – | > 79.9 µM | 37.9 µg/mL | > 100 µM and 88.1 µg/mL | 28.1 µg/mL | > 100 µM and 64.7 µg/mL
9 | COc1cc([C@@H]2c3cc4c(cc3[C@H](OC3OC5COC(c6ccccc6)OC5C(O)C3O)[C@H]3COC(=O)[C@H]23)OCO4)cc(OC)c1OC (stereo partly drawn) | 0.356 µM | 2.32 µM | 0.282 µM | 0.711 µM | 0.355 µM | 2.12 µM | 2.73 µM | 18.8 µM | 0.978 µM | 5.64 µM | 0.428 µM | 2.72 µM | 0.366 µM | 3.85 µM | 0.427 µM | 2.84 µM | 0.663 µM | 11.8 µM | 0.403 µM | 8.11 µM
10 | O=C(c1ccccc1)c1nnn(Cc2cccc(Cl)c2)c1C(=O)c1ccccc1 | – | > 100 µM | – | > 100 µM | – | > 100 µM | – | > 100 µM | – | > 100 µM | – | > 100 µM | – | > 100 µM | – | > 100 µM | – | > 100 µM | – | > 100 µM
11 | O=C(CCCCCCc1nc2ccc(Br)cc2[nH]1)NO | 0.291 µM | – | 0.313 µM | 1.61 µM | 0.275 µM | 16 µM | 0.241 µM | 0.905 µM | 0.279 µM | 3.87 µM | 0.67 µM | 3.3 µM | 0.433 µM | 5.22 µM | 0.396 µM | 1.55 µM | 2.43 µM | > 100 µM | 0.419 µM | > 100 µM
12 | O=C1CCCC1C(=O)Nc1ccc2ccccc2c1 (stereo not drawn) | – | > 100 µM | – | > 100 µM | – | > 100 µM | – | > 100 µM | – | > 100 µM | – | > 100 µM | – | > 100 µM | – | > 100 µM | – | > 100 µM | – | > 100 µM
13 | N#Cc1c(N)nn(C(=O)c2ccc(NC(=O)c3ccccn3)cc2)c1-c1ccc(Cl)cc1 | 3.55 µM | > 100 µM | 3.9 µM | 24.3 µM | 3.38 µM | 17.7 µM | 2.31 µM | 9.5 µM | 71.6 µM | > 100 µM | 3.55 µM | 24.1 µM | 1.79 µM | 5.27 µM | 5.75 µM | > 100 µM | 2.33 µM | 6.02 µM | 1.86 µM | 4.07 µM
14 | CCCOC(=O)C1CCC(=O)N1C(=O)C(Cl)Cl (stereo not drawn) | – | > 100 µM | – | > 100 µM | – | > 100 µM | – | > 100 µM | – | > 100 µM | – | > 100 µM | – | > 100 µM | – | > 100 µM | – | > 100 µM | – | > 100 µM
15 | O=C(CC(O)(c1ccccc1)c1ccc(Cl)cc1)NC(=O)c1ccccc1O (stereo not drawn) | – | 53 µM | – | 27.4 µM | – | 61.3 µM | – | 6.59 µM | – | 22.1 µM | – | > 100 µM | – | 6.75 µM | – | 23.3 µM | – | > 100 µM | – | 40.8 µM
16 | Cc1nc2c(cnn2-c2ccnc3c(C(F)(F)F)cccc23)c(=O)o1 | > 100 µM | > 100 µM | > 100 µM | > 100 µM | > 100 µM | > 100 µM | > 100 µM | > 100 µM | > 100 µM | > 100 µM | > 100 µM | > 100 µM | > 100 µM | > 100 µM | > 100 µM | > 100 µM | > 100 µM | > 100 µM | > 100 µM | > 100 µM
17 | Cc1cc(O)c2c(c1)C[C@@H](O)C1=C2C(=O)c2c(O)ccc(OC3CC(O)C(OC4CC(OC5CCC(OC6CC(O)C(OC7CC(OC8CCC(O)C(C)O8)C(O)C(C)O7)C(C)O6)C(C)O5)C(O)C(C)O4)C(C)O3)c2C1=O (stereo partly drawn) | 0.847 µM | 0.318 µM and 2.3 µM | 0.223 µM | 0.138 µM and 0.765 µM | 0.364 µM | – | 0.3 µM | 0.316 µM and 0.684 µM | 0.89 µM | – | 0.295 µM and 0.467 µM | – | 1.39 µM and 1.3 µM | – | 0.295 µM and 0.23 µM | – | 0.326 µM | – | 1.48 µM and 1.99 µM | –
18 | C=C1C(=O)O[C@@H]2[C@@H]3O[C@@](C)(CC/C=C(\C)CCC[C@@H]2C)[C@H](O)C[C@@H]13 | 2.41 µM | 6.71 µM | 1.7 µM | 3.34 µM | 1.76 µM | 5.85 µM | 1.7 µM | 4.58 µM | 2.41 µM | 4.85 µM | 3.04 µM | 10 µM | 1.4 µM | 2.93 µM | 1.77 µM | 4.03 µM | 2.63 µM | 11.7 µM | 2.58 µM | 13.4 µM
19 | COc1ccc(C(=O)CC2(O)C(=O)Nc3c(Cl)ccc(Cl)c32)cc1 (stereo not drawn) | 0.491 µM | > 57.9 µM | 0.701 µM | 3.75 µM | 3.62 µM | 60.3 µM | 1.22 µM | 18.4 µM | 2.21 µM | > 44.1 µM | 5.95 µM | > 61.1 µM | 6.65 µM | > 100 µM | 2.72 µM | > 100 µM | 11.9 µM | > 100 µM | 1.89 µM | > 29.8 µM
20 | CCc1ccc(Cc2ccc(CC)c(NC(=O)C(=O)Cc3nc4ccccc4nc3C)c2CC)c(CC)c1NC(=O)C(=O)Cc1nc2ccccc2nc1C | – | – | – | > 100 µM | – | > 100 µM | – | 43 µM | – | > 100 µM | – | > 100 µM | – | 72.8 µM | – | > 100 µM | – | > 100 µM | – | 44.4 µM
